The source of these data is PubChem BioAssay (NCI).

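Protocol summary: plate cells (96-well), add compound at 5 concentrations, incubate 48 h, interpolate endpoints linearly. TGI denotes the concentration required for complete inhibition of growth.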

Test systems include RXF-631 renal; XF 498 CNS; HOP-18 NSCLC; DMS 273 small cell lung; KM20L2 colon; SNB-78 CNS; DMS 114 small cell lung; DLD-1 colon; MDA-N.
Common to all, as to assay: NCI anticancer screen, dose series, 48 h

As for `CN(C)c1ccc(C(C=C2c3ccccc3Sc3ccccc32)=C(C#N)C#N)cc1`, the TGI in the test on RXF-631 renal, with XF 498 CNS, in the test on HOP-18 NSCLC, with DMS 273 small cell lung, in the test on KM20L2 colon and with SNB-78 CNS was greater than 100 µM throughout. Further, the TGI in the test with DMS 114 small cell lung and in the test on DLD-1 colon was greater than 100 µM throughout.

For `O=C(CCn1[nH]c(=O)c(Cl)c(Cl)c1=O)NO`, the TGI with XF 498 CNS, with HOP-18 NSCLC, with DMS 273 small cell lung, with KM20L2 colon, with DMS 114 small cell lung and in the test with DLD-1 colon was greater than 100 µM throughout.

As to `Cc1cc([N+](=O)[O-])ccc1Nc1cccc(Cl)c1C`, the TGI was determined as 31.3 µM in the test on RXF-631 renal; 29.6 µM with HOP-18 NSCLC; 28.5 µM in the test with DMS 273 small cell lung; 29.8 µM with KM20L2 colon; 28.9 µM in the test with DMS 114 small cell lung; 33.5 µM in the test with DLD-1 colon.

`Cc1cc(CC(O)c2ccc(Cl)c(Cl)c2)nc(=O)[nH]1` (centres undefined): the TGI in the test with XF 498 CNS was 41.3 µM; in the test with KM20L2 colon, greater than 100 µM; in the test with SNB-78 CNS it was greater than 100 µM; in the test with DMS 114 small cell lung it was 26.8 µM; with DLD-1 colon, greater than 100 µM.

Regarding `Cc1ccc(NC(=O)C(=O)C(C(=O)c2ccc3ccccc3c2)C2OC(=O)c3ccccc32)cc1C` (centres undefined), the TGI with XF 498 CNS was 18.2 µM; in the test on HOP-18 NSCLC, 21.7 µM; in the test on DMS 273 small cell lung, 30.3 µM; in the test on KM20L2 colon it was greater than 100 µM; in the test on DMS 114 small cell lung, 41.3 µM; in the test with DLD-1 colon, 36.7 µM.

As for `CCCN=C(N)NC#N`, the TGI with HOP-18 NSCLC was greater than 100 µM; in the test with DMS 273 small cell lung, greater than 100 µM; with KM20L2 colon, greater than 100 µM; in the test on SNB-78 CNS, greater than 100 µM; in the test with DMS 114 small cell lung it was 35.8 µM; with DLD-1 colon, greater than 100 µM.

`O=C(O)CCC(=O)c1ccc[nH]1`: the TGI with MDA-N is greater than 100 µM.

As to `C=COCCCOc1ccccc1`, the TGI in the test on XF 498 CNS, with HOP-18 NSCLC, in the test on DMS 273 small cell lung, with KM20L2 colon, with DMS 114 small cell lung and with DLD-1 colon was greater than 100 µM throughout.

For `O=S1(=O)C[C@H](O)[C@H](O)CS1`, the TGI in the test with XF 498 CNS, in the test with HOP-18 NSCLC, in the test on DMS 273 small cell lung, in the test with KM20L2 colon, in the test with SNB-78 CNS and with DMS 114 small cell lung was greater than 100 µM throughout. The compound further gave a TGI in the test on DLD-1 colon greater than 100 µM.

For `Cc1nn(-c2ccccc2)c2nc(N3CCOCC3)nnc12`, the TGI in the test with RXF-631 renal, in the test with XF 498 CNS, in the test with DMS 273 small cell lung, in the test on KM20L2 colon, in the test with SNB-78 CNS and in the test with DMS 114 small cell lung was greater than 100 µM in each case. In the test with DLD-1 colon, this compound gave a TGI greater than 100 µM.

On to `CC(C)N(C(=O)C12C3C4C5(C#N)C3C1(C#N)C5C42I)C(C)C` (centres undefined), for which the TGI in the test with RXF-631 renal was greater than 100 µM; with XF 498 CNS, greater than 100 µM; with HOP-18 NSCLC, greater than 100 µM; in the test on DMS 273 small cell lung, greater than 60.9 µM; in the test on KM20L2 colon, greater than 100 µM; with SNB-78 CNS, greater than 100 µM. Further, the TGI in the test with DMS 114 small cell lung was greater than 64.5 µM; with DLD-1 colon it was greater than 60.9 µM.

As to `NNC(=S)N/N=C(\CC1OC(=O)c2ccccc21)c1ccccc1O` (centres undefined), the TGI in the test on RXF-631 renal, in the test on XF 498 CNS, with HOP-18 NSCLC, in the test on DMS 273 small cell lung, in the test with KM20L2 colon and in the test with SNB-78 CNS was greater than 100 µM throughout. For the same compound, the TGI in the test with DMS 114 small cell lung and with DLD-1 colon was greater than 100 µM in each case.

In the case of `COc1ccc2c(c1)CCCC(Br)C2=O` (centres undefined), the TGI in the test with MDA-N amounted to 9.21 µM.

Consider `S=C1NC2(CCCCCC2)NN1c1ccccc1`, for which the TGI with MDA-N, with RXF-631 renal, with HOP-18 NSCLC, in the test on DMS 114 small cell lung and with DLD-1 colon was greater than 100 µM throughout.

With `O=C(/C=C/c1ccccc1O)c1ccccc1O`, the TGI in the test with DMS 273 small cell lung, in the test with KM20L2 colon, in the test with SNB-78 CNS, in the test with DMS 114 small cell lung and with DLD-1 colon was greater than 100 µM in each case.

In the case of `COc1ccc2c3c([nH]c2c1[N+](=O)[O-])C(C)=NCC3`, the TGI with RXF-631 renal, in the test on DMS 273 small cell lung, in the test on KM20L2 colon, with SNB-78 CNS, in the test on DMS 114 small cell lung and in the test with DLD-1 colon was greater than 100 µM each time.

For the compound `COc1ccc(C(=O)C(c2ccc(OC)cc2)C2(O)C(=O)Nc3ccc([N+](=O)[O-])cc32)cc1` (centres undefined), the TGI in the test on DMS 273 small cell lung, in the test on KM20L2 colon, in the test on SNB-78 CNS, with DMS 114 small cell lung and in the test with DLD-1 colon was greater than 100 µM each time.

`CN(C)N=Nc1ccc(NC=O)cc1` returned a TGI in the test with MDA-N greater than 100 µM.

Take `Cc1ccc(S(=O)(=O)N(CC(=O)O)c2ccccc2)cc1`: the TGI with HOP-18 NSCLC, with DMS 273 small cell lung, with KM20L2 colon and with DLD-1 colon was greater than 100 µM each time.

Consider `CN(C)/C=N/c1nc2c(ncn2C2OC(CO)C(O)C2O)c(=O)[nH]1` (centres undefined), for which the TGI in the test with RXF-631 renal, in the test on XF 498 CNS, in the test with HOP-18 NSCLC, with DMS 273 small cell lung, in the test on KM20L2 colon and with SNB-78 CNS was greater than 100 µM throughout. Moreover, the TGI with DMS 114 small cell lung and in the test with DLD-1 colon was greater than 100 µM each time.

For `COc1cccc(/C=C/c2cc(OC)c(OC)c(OC)c2)c1`, the TGI with RXF-631 renal is greater than 100 µM; in the test on XF 498 CNS it was greater than 100 µM; in the test on DMS 273 small cell lung, greater than 100 µM; in the test on KM20L2 colon, 87.7 µM; with SNB-78 CNS, greater than 100 µM; in the test with DMS 114 small cell lung it was greater than 100 µM. The compound further displayed a TGI in the test with DLD-1 colon greater than 100 µM.

`CC(CCC=O)CCOCc1ccccc1` (centres undefined): the TGI in the test on MDA-N, with XF 498 CNS, with HOP-18 NSCLC, in the test on DMS 273 small cell lung, in the test on KM20L2 colon and in the test with SNB-78 CNS was greater than 100 µM in each case. The TGI with DMS 114 small cell lung and with DLD-1 colon was greater than 100 µM throughout.
